Test results as given in ChEMBL document CHEMBL4270485, “Determination of Gymnemic Acid I as a Protein Biosynthesis Inhibitor Using Chemical Proteomics” (J Nat Prod, 2017).
Calls of active or inactive are those of the source. The calls are words filed in the database; no cut-off is given here.

Assays:
[1] = molecular target: T1, 80S Ribosome (Homo sapiens) (UniProt P08865+P42677+P62753+P15880+P23396+P61247+P62701+P22090+P46782+P62081+P62241+P46781+P46783+P62280+P25398+P62277+P62263+P62841+P62244+P62249+P08708+P62269+P39019+P60866+P63220+P62266+P62847+P62851+P62854+P62979+P62857+P62273+P62861+P39023+P36578+P46777+Q02878+P18124+P62424+P62917+P32969+P27635+P62906+P62913+P30050+P26373+P40429+P50914+P61313+P18621+Q07020+Q02543+P84098+P46778+P35268+P62829+P62750+P83731+P61254+P61353+P46776+P46779+P47914+P62888+P62899+P62910+P49207+P42766+P18077+Q9Y3U8+P83881+P61927+P61513+P63173+P62891+P62945+P05388+P05386); test: Binding affinity to ribosomal protein S3 in human Hela cells lysates assessed as protein enrichment by Western blotting analysis; format: cell-free
[2] = Drug internalization in human HeLa cells at 1 uM by RP-HPLC-MS analysis; format: ADME, cell-based
[3] = molecular target: T1, 80S Ribosome (Homo sapiens); test: Binding affinity to 40S ribosomal protein S14 in human Hela cells lysates assessed as protein enrichment by measuring normalized heavy/light ratio at by nano-LC-ESIMS/MS analysis; format: cell-free
[4] = molecular target: T1, 80S Ribosome (Homo sapiens); test: Binding affinity to 40S ribosomal protein S17 in human Hela cells lysates assessed as protein enrichment by measuring normalized heavy/light ratio at by nano-LC-ESIMS/MS analysis; format: cell-free
[5] = molecular target: T1, 80S Ribosome (Homo sapiens); test: Binding affinity to 40S ribosomal protein S2 in human Hela cells lysates assessed as protein enrichment by measuring normalized heavy/light ratio at by nano-LC-ESIMS/MS analysis; format: cell-free
[6] = molecular target: T1, 80S Ribosome (Homo sapiens); test: Binding affinity to 40S ribosomal protein S24 in human Hela cells lysates assessed as protein enrichment by measuring normalized heavy/light ratio at by nano-LC-ESIMS/MS analysis; format: cell-free
[7] = molecular target: T1, 80S Ribosome (Homo sapiens); test: Binding affinity to 40S ribosomal protein S3 in human Hela cells lysates assessed as protein enrichment by measuring normalized heavy/light ratio at by nano-LC-ESIMS/MS analysis; format: cell-free
[8] = molecular target: T1, 80S Ribosome (Homo sapiens); test: Binding affinity to 40S ribosomal protein S5 in human Hela cells lysates assessed as protein enrichment by measuring normalized heavy/light ratio at by nano-LC-ESIMS/MS analysis; format: cell-free
[9] = molecular target: T1, 80S Ribosome (Homo sapiens); test: Binding affinity to 60S acidic ribosomal protein P0 in human Hela cells lysates assessed as protein enrichment by measuring normalized heavy/light ratio at by nano-LC-ESIMS/MS analysis; format: cell-free
[10] = molecular target: T1, 80S Ribosome (Homo sapiens); test: Binding affinity to 60S acidic ribosomal protein P1 in human Hela cells lysates assessed as protein enrichment by measuring normalized heavy/light ratio at by nano-LC-ESIMS/MS analysis; format: cell-free
[11] = molecular target: Large ribosomal subunit protein P2 (Homo sapiens) (UniProt P05387); test: Binding affinity to 60S acidic ribosomal protein P2 in human Hela cells lysates assessed as protein enrichment by measuring normalized heavy/light ratio at by nano-LC-ESIMS/MS analysis; format: cell-free
Sequence of Large ribosomal subunit protein P2 (Homo sapiens) (P05387 whole entry): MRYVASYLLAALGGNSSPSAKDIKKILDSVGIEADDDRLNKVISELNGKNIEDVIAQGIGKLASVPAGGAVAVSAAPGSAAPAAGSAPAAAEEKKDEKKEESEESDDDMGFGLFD

[12] = molecular target: T1, 80S Ribosome (Homo sapiens); test: Binding affinity to 60S ribosomal protein L15 in human Hela cells lysates assessed as protein enrichment by measuring normalized heavy/light ratio at by nano-LC-ESIMS/MS analysis; format: cell-free
[13] = molecular target: T1, 80S Ribosome (Homo sapiens); test: Binding affinity to 60S ribosomal protein L23a in human Hela cells lysates assessed as protein enrichment by measuring normalized heavy/light ratio at by nano-LC-ESIMS/MS analysis; format: cell-free
[14] = molecular target: T1, 80S Ribosome (Homo sapiens); test: Binding affinity to 60S ribosomal protein L31 in human Hela cells lysates assessed as protein enrichment by measuring normalized heavy/light ratio at by nano-LC-ESIMS/MS analysis; format: cell-free
[15] = molecular target: T1, 80S Ribosome (Homo sapiens); test: Binding affinity to 60S ribosomal protein L4 in human Hela cells lysates assessed as protein enrichment by measuring normalized heavy/light ratio at by nano-LC-ESIMS/MS analysis; format: cell-free
[16] = molecular target: Endoplasmic reticulum chaperone BiP (Homo sapiens) (UniProt P11021); test: Binding affinity to 78 kDa glucose-regulated protein in human Hela cells lysates assessed as protein enrichment by measuring normalized heavy/light ratio at by nano-LC-ESIMS/MS analysis; format: cell-free
Sequence of Endoplasmic reticulum chaperone BiP (Homo sapiens) (P11021 whole entry): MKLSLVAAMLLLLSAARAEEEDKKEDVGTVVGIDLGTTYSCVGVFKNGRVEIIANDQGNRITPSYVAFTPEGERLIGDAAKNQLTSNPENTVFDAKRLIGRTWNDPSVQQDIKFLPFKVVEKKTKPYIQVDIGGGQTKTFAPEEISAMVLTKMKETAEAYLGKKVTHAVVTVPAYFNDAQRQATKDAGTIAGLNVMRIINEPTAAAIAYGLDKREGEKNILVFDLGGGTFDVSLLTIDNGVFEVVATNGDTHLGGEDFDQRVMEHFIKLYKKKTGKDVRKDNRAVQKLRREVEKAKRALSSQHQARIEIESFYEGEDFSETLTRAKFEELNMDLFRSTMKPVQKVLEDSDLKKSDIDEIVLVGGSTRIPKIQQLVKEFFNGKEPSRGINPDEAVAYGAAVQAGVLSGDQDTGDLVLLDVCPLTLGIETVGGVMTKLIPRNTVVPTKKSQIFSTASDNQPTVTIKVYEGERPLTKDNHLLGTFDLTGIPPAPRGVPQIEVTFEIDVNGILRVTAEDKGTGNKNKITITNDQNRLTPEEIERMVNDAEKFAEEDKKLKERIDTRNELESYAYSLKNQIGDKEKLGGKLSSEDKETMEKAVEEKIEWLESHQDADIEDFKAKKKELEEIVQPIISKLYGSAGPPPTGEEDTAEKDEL

[17] = molecular target: Alkyldihydroxyacetonephosphate synthase, peroxisomal (Homo sapiens) (UniProt O00116); test: Binding affinity to alkyldihydroxyacetone phosphate synthase in human Hela cells lysates assessed as protein enrichment by measuring normalized heavy/light ratio at by nano-LC-ESIMS/MS analysis; format: cell-free
Sequence of Alkyldihydroxyacetonephosphate synthase, peroxisomal (Homo sapiens) (O00116 whole entry): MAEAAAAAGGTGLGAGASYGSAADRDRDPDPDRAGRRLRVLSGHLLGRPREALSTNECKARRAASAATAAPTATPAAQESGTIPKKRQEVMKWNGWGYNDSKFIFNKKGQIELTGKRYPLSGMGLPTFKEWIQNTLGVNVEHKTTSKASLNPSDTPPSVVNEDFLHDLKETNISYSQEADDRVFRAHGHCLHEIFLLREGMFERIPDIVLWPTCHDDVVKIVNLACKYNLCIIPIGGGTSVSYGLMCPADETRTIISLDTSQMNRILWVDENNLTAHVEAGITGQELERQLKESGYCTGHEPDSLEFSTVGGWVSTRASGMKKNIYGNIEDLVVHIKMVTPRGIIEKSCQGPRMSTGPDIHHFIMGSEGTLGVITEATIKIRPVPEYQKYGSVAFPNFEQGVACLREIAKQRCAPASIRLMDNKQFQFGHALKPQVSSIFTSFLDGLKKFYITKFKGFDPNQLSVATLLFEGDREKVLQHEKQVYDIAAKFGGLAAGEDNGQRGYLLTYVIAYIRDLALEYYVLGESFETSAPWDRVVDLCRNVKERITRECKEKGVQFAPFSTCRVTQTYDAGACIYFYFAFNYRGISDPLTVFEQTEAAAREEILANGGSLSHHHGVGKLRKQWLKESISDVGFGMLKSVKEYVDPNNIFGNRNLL

[18] = molecular target: Elongation factor 1-beta (Homo sapiens) (UniProt P24534); test: Binding affinity to elongation factor 1-beta in human Hela cells lysates assessed as protein enrichment by measuring normalized heavy/light ratio at by nano-LC-ESIMS/MS analysis; format: cell-free
Sequence of Elongation factor 1-beta (Homo sapiens) (P24534 whole entry): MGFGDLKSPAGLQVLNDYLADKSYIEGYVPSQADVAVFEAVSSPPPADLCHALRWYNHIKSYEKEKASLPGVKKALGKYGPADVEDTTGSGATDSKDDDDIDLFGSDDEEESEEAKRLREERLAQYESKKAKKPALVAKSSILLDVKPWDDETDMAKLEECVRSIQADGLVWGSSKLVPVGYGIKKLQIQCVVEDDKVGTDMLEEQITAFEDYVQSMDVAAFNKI

[19] = molecular target: Elongation factor 1-gamma (Homo sapiens) (UniProt P26641); test: Binding affinity to elongation factor 1-gamma in human Hela cells lysates assessed as protein enrichment by measuring normalized heavy/light ratio at by nano-LC-ESIMS/MS analysis; format: cell-free
Sequence of Elongation factor 1-gamma (Homo sapiens) (P26641 whole entry): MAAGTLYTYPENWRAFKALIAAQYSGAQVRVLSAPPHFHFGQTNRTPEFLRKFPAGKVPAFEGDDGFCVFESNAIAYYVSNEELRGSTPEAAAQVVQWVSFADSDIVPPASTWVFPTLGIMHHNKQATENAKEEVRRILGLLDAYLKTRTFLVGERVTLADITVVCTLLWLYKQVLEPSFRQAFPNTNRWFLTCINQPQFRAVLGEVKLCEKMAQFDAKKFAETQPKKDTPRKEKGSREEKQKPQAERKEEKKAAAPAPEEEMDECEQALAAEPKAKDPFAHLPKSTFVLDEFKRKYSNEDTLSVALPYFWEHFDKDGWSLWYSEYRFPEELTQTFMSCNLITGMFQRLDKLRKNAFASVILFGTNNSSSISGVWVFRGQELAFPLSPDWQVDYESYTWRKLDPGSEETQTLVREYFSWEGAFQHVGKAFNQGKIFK

[20] = molecular target: Heat shock cognate 71 kDa protein (Homo sapiens) (UniProt P11142); test: Binding affinity to heat shock cognate 71 kDa protein in human Hela cells lysates assessed as protein enrichment by measuring normalized heavy/light ratio at by nano-LC-ESIMS/MS analysis; format: cell-free
Sequence of Heat shock cognate 71 kDa protein (Homo sapiens) (P11142 2-646 limits assumed): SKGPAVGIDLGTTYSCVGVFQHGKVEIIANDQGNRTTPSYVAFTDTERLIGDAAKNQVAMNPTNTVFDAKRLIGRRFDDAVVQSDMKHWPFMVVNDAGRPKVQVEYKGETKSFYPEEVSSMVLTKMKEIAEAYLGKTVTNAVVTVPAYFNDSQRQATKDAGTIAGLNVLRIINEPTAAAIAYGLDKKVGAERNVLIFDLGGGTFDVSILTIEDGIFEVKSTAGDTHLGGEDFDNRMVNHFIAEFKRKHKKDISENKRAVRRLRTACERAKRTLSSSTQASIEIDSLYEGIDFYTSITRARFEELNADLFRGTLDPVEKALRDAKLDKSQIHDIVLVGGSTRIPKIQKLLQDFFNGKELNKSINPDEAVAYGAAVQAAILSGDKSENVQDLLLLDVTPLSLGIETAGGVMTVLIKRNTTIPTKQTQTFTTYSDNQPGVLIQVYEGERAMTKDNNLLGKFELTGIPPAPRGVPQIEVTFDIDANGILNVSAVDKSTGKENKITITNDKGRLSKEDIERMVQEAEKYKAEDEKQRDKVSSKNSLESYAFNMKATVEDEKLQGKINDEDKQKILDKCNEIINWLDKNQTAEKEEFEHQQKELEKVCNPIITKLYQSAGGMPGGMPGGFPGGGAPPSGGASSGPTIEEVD

[21] = molecular target: Peroxiredoxin-1 (Homo sapiens) (UniProt Q06830); test: Binding affinity to peroxiredoxin-1 in human Hela cells lysates assessed as protein enrichment by measuring normalized heavy/light ratio at by nano-LC-ESIMS/MS analysis; format: cell-free
Sequence of Peroxiredoxin-1 (Homo sapiens) (Q06830 whole entry): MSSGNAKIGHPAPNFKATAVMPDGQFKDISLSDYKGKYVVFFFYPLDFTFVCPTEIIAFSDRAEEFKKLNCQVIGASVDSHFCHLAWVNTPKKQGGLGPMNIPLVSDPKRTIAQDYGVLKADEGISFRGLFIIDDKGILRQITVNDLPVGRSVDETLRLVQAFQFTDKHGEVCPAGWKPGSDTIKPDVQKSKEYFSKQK

[22] = molecular target: Poly(rC)-binding protein 2 (Homo sapiens) (UniProt Q15366); test: Binding affinity to poly(rC)-binding protein 2 in human Hela cells lysates assessed as protein enrichment by measuring normalized heavy/light ratio at by nano-LC-ESIMS/MS analysis; format: cell-free
Sequence of Poly(rC)-binding protein 2 (Homo sapiens) (Q15366 whole entry): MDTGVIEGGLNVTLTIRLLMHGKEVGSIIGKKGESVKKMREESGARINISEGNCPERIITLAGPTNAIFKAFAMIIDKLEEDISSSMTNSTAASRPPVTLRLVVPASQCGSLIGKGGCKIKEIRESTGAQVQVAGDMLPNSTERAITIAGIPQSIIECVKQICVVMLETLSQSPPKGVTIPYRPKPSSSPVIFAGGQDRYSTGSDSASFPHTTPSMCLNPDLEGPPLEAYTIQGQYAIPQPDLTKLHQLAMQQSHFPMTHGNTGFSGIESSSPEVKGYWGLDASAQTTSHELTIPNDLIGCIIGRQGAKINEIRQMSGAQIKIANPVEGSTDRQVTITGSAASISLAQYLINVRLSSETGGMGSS

[23] = molecular target: Programmed cell death protein 6 (Homo sapiens) (UniProt O75340); test: Binding affinity to programmed cell death protein 6 in human Hela cells lysates assessed as protein enrichment by measuring normalized heavy/light ratio at by nano-LC-ESIMS/MS analysis; format: cell-free
Sequence of Programmed cell death protein 6 (Homo sapiens) (O75340 whole entry): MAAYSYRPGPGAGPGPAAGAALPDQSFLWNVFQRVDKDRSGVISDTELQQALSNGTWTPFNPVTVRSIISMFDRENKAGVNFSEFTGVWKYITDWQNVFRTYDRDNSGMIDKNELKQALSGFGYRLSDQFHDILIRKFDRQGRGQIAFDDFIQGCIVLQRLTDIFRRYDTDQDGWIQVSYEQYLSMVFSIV

[24] = molecular target: Trypsin (Homo sapiens) (UniProt P07477+P07478+P35030); test: Binding affinity to trypsin in human Hela cells lysates assessed as protein enrichment by measuring normalized heavy/light ratio at by nano-LC-ESIMS/MS analysis; format: cell-free
[25] = molecular target: Tubulin alpha-1B chain (Homo sapiens) (UniProt P68363); test: Binding affinity to tubulin alpha-1B chain in human Hela cells lysates assessed as protein enrichment by measuring normalized heavy/light ratio at by nano-LC-ESIMS/MS analysis; format: cell-free
Sequence of Tubulin alpha-1B chain (Homo sapiens) (P68363 whole entry, looked up): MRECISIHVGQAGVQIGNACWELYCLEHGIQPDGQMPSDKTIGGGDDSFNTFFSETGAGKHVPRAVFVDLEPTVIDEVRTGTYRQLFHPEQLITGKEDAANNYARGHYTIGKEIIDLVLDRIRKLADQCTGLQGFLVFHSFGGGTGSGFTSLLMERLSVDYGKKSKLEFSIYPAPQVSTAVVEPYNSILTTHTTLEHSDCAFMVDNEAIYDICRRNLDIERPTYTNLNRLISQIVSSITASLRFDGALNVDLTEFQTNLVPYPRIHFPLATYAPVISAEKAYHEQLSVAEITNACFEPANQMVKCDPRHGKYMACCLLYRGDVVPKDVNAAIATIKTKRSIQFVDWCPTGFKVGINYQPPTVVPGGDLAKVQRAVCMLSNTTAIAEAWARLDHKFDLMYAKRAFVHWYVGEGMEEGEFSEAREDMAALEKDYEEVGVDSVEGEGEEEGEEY

[26] = molecular target: Vimentin (Homo sapiens) (UniProt P08670); test: Binding affinity to vimentin in human Hela cells lysates assessed as protein enrichment by measuring normalized heavy/light ratio at by nano-LC-ESIMS/MS analysis; format: cell-free
Sequence of Vimentin (Homo sapiens) (P08670 whole entry): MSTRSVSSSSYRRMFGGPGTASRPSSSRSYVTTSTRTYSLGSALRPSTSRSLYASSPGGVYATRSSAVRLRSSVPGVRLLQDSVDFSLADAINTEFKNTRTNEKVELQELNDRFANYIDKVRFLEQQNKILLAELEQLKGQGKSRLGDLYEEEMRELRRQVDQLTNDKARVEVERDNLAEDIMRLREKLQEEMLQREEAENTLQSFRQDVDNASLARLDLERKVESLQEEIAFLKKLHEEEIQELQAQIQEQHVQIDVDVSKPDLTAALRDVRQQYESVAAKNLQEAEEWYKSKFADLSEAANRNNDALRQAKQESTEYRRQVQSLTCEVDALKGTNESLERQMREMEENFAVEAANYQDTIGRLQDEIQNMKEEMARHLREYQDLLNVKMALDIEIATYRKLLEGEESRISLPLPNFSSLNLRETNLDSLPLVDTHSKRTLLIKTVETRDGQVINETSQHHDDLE

[27] = molecular target: Tubulin beta-4B chain (Homo sapiens) (UniProt P68371); test: Binding affinity to tubulin beta-4B chain in human Hela cells lysates assessed as protein enrichment by measuring normalized heavy/light ratio at by nano-LC-ESIMS/MS analysis
Sequence of Tubulin beta-4B chain (Homo sapiens) (P68371 whole entry, looked up): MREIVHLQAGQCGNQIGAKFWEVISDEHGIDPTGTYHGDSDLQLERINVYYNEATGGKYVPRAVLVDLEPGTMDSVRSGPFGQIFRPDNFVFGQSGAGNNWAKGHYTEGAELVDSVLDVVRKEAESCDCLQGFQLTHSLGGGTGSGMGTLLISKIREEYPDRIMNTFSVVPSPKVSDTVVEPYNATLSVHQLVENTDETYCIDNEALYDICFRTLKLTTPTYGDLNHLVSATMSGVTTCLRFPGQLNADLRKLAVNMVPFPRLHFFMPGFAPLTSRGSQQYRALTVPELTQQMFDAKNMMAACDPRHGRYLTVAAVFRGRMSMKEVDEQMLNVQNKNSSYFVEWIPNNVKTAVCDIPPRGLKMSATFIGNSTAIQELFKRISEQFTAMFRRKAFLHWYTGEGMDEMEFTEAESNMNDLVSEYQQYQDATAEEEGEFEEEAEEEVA

Activity [1]: Active
Drug uptake [2]: 4%
Ratio [3]: 0.405
Ratio [4]: 0.069
Ratio [5]: 0.114
Ratio [6]: 0.173
Ratio [7]: 0.269
Ratio [8]: 0.255
Ratio [9]: 0.245
Ratio [10]: 0.27
Ratio [11]: 0.329
Ratio [12]: 0.818
Ratio [13]: 0.313
Ratio [14]: 0.439
Ratio [15]: 0.396
Ratio [16]: 0.527
Ratio [17]: 0.955
Ratio [18]: 0.525
Ratio [19]: 0.536
Ratio [20]: 0.615
Ratio [21]: 1.06
Ratio [22]: 0.633
Ratio [24]: 1
Ratio [25]: 0.523
Ratio [26]: 0.817
Ratio [27]: 0.423
Compound: C/C=C(\C)C(=O)O[C@H]1[C@H](O)[C@]2(COC(C)=O)[C@@H](O)C[C@]3(C)C(=CC[C@@H]4[C@@]5(C)CC[C@H](O[C@@H]6O[C@H](C(=O)O)[C@@H](O)[C@H](O)[C@H]6O)[C@@](C)(CO)[C@@H]5CC[C@]43C)[C@@H]2CC1(C)C
Ratio [23]: 0.68
